Results: patent publication US20050123613A1, “Activated carbon infusion solution, preparation method therefor and use thereof for the manufacture of drug for treating cancer” (priority 2003, published 2005)

Experiments:
[1] = Measured adsorption values of drugs on hydroxyl-amino carbon; format: physicochemical; conditions: specific surface area 6800M^2/g
[2] = Measured adsorption values of drugs on activated carbon; format: physicochemical; conditions: specific surface area 6800M^2/g
cancer patients = assay: Experimental clinical cases, intravenous injection; format: in vivo, human; conditions: Case 4, breast cancer with systematic metastasis, before activated carbon treatment

Compound	Adsorption value on hydroxyl-amino carbon [1]	Adsorption value on activated carbon [2]	Analgesia (cancer patients)
O=c1[nH]cc(Cl)c(=O)[nH]1 [5-chlorouracil]	102 mg	75 mg	
O=c1[nH]cc(F)c(=O)[nH]1 [5-fluorouracil, reference compound]	49 mg		
O=P1(N(CCCl)CCCl)NCCCO1 (stereo not drawn) [CTX, reference compound]	136 mg	98 mg	
S=c1nc[nH]c2nc[nH]c12 [Example 6-MP, 6-MP, reference compound]	304 mg	220 mg	
CN1CC[C@]23c4c5ccc(O)c4O[C@H]2[C@@H](O)C=C[C@H]3[C@H]1C5 [Morphine]			of no effect
Nc1ncnc2nc[nH]c12 [adenine]	260 mg	213 mg	
ClC(Cl)Cl [chloroform]	4 mg	10 mg	
N.N.[Cl][Pt][Cl] [cisplatin, reference compound]	1105 mg	995 mg	
Nc1nc2nc[nH]c2c(=O)[nH]1 [guanine]	378 mg	331 mg	
Cc1c[nH]c(=O)[nH]c1=O [thymine]	17 mg	5 mg	
O=c1cc[nH]c(=O)[nH]1 [uracil]	51 mg	33 mg	
ferroporphyrin	311 mg	283 mg	
thymopeptide	127 mg	90 mg	
